Consider 3 compounds from patent US20130137111A1, “DETECTION METHOD OF NOVEL RET FUSION” (Astellas Pharma Inc., priority 2010, published 2013).

The test system of test [1] is FLAG-KIF5B-RETv1S/NIH3T3 cells. Description: Anchorage-independent cell growth inhibition in spheroid plate (CellTiter-Glo). Type of test: cell-based. The note with it: Mus musculus, 120 h, final concentration 1.1 μM, 96-well spheroid plate, cultured 5 days, DMSO = 0%, medium only = 100%, read-out: growth inhibition rate (%). The procedure:
The measurement (colony method or the like) of anchorage-independent cell growth is known to be a system for examining the anticancer action (pharmacological effect) of a compound (“Clinical Oncology” 2nd edition, Japanese Journal of Cancer & Chemotherapy). As a method that measures the growth of non-adherent cells unlike the colony method, there is a method using a spheroid plate as described above.
In addition, a plate to which only a medium was added was prepared as a […]. […] As a […], DMSO as solvent of the compound was added thereto at the same concentration (0.1%) as the compound. Thereafter, the cells were cultured for 5 days at 37° C. in the presence of 5% CO2, and the cell counting reagent (CellTiter-Gio™ Luminescent Cell Viability Assay; Promega Corporation) was added thereto, followed by stirring for 20 minutes. Thereafter, the cells were measured using a luminescence measurement instrument (Envision; PerkinElmer Inc.). The values of positive control and negative control were regarded as 100% inhibition value and 0% inhibition value respectively to calculate the growth inhibition rate (%) of the respective compounds.
On the technique in general: ATP-based viability assays read luminescence as a measure of living cells.

The target of test [2] is T1, KIF5B-RET fusion polypeptide v1S (Homo sapiens, UniProt P07949).
T1 sequence (P07949 with tags, fused parts or gaps isoform P07949-2): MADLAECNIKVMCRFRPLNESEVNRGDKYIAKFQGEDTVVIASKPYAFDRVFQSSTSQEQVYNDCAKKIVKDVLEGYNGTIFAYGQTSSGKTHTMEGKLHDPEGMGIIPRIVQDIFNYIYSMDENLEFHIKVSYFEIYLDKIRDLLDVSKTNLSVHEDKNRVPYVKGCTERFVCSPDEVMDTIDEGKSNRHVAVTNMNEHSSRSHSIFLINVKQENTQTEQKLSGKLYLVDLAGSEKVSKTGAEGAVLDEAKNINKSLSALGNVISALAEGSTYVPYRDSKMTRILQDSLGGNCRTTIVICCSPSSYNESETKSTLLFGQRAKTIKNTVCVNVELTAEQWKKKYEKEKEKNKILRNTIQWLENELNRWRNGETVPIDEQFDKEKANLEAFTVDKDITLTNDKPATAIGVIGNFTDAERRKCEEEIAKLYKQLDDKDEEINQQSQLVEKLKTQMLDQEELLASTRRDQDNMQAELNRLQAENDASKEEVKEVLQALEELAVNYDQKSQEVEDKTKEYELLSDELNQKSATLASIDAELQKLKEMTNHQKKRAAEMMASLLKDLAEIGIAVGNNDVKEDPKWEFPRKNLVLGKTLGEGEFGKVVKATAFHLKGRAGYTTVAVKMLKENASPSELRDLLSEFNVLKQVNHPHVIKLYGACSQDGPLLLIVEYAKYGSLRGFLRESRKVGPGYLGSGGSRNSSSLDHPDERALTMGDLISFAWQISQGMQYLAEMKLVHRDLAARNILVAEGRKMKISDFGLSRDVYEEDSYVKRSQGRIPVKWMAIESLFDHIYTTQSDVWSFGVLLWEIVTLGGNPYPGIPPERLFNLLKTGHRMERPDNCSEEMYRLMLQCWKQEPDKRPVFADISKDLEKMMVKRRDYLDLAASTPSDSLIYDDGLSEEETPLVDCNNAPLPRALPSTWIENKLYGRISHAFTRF
Description: cell-based. The following applies: NIH3T3, read-out: phosphorylation inhibition rate.

In the case of `COc1cc2c(Nc3ccc(Br)cc3F)ncnc2cc1OCC1CCN(C)CC1` [Vandetanib], the inhibition – broadly, the relative decrease from the control value, in per cent – at 1.1 µM in test [1] stood at 83%.
Still for that read-out and setting: as for `CNC(=O)c1cc(Oc2ccc(NC(=O)Nc3ccc(Cl)c(C(F)(F)F)c3)cc2)ccn1` [Sorafenib], the figure is 96%.
Take `CCN(CC)CCNC(=O)c1c(C)[nH]c(/C=C2\C(=O)Nc3ccc(F)cc32)c1C` [Sunitinib]: the inhibition at 1 µM in test [2] was determined as 57%. Further, in test [1], the inhibition at 1.1 µM worked out at 77%.
